# Assays:
# [1] = test system: phospho-ERK in MeWo cells; assay: pERK/tERK ratio in MeWo melanoma model; type: cell-based; details: MeWo (NF1 LoF); 100 nM
# Experimental: (§1) Compound (drug) treatment: Cells were plated in a 6-well plate at a density of 250,000-300,000 cells/well in 3 mL media and incubated 37° C. in a humidified, 5% CO2 incubator. […] These solutions were added to the cells (3 uL/well), mixed by swirling the plate, and incubated at 37° C. in a humidified, 5% CO2 incubator for 2 hours.
# (§2) Cell lysis and protein estimation: Cells were washed with PBS, and scraped in 50 μL of lysis buffer containing protease and phosphatase inhibitors. Cell lysates were stored at −20° C. Cell lysates were thawed and spun at 12,000 rpm for one minute, 3 ul of the supernatant was added to 500 μL of Coomassie blue reagent following by 500 μL of water. […] Protein standards were used (0-20 mg/mL) to calculate protein concentrations of test samples.
# (§3) All samples were heated at 95° C. for 5 minutes, cooled to room temperature and spun down. […] After the run, gel was removed and protein transfer was done using iBlot for 7 minutes, as per manufacturer's recommendations. After the transfer, nitrocellulose membrane was incubated on a shaker in 5 mL of blocking buffer at room temperature for 1 hr. The blot was then incubated overnight on a shaker in 5 ml of blocking buffer containing 0.2% Tween-20 and primary antibody, at room temperature. Anti-phospho-STAT3 antibody was used at a dilution of 1:500, the other 3 primary antibodies were used at a dilution of 1:1000.
# (§4) Next day, the blot was washed 3 times for 10 min each with 10 mL of TBST followed by incubation on a shaker in 5 ml of blocking buffer containing 0.2% Tween-20 and 0.5 ul of the IRDye labeled secondary antibodies, diluted 1:10000, at room temperature for 1 hr. The blot was then washed 3 times for 10 min each with 10 mL of TBST and dried between sheets of paper towels. Imaging was done using LICOR's Odyssey imaging system, quantitation was done using their software, Image Studio version 3.1.
# (§5) The nine models are described in Table 16.
# [2] = PubChem Compound Summary; cited from earlier work
# [3] = test system: phospho-MEK in MEL-JUSO cells; assay: pMEK/tMEK ratio in MEL-JUSO melanoma model; type: cell-based; details: MEL-JUSO (HRAS p.G13D, NRAS p.Q61L); 100 nM
# Experimental: as §1, §2, §3, §4, §5
# [4] = test system: phospho-ERK in MM415 cells; assay: pERK/tERK ratio in MM415 melanoma model; type: cell-based; details: MM415 (NRAS p.Q61L); 100 nM
# Experimental: as §1, §2, §3, §4, §5
# [5] = test system: phospho-MEK in SK-MEL-30 cells; assay: pMEK/tMEK ratio in SK-MEL-30 melanoma model; type: cell-based; details: SK-MEL-30 (NRAS p.Q61K); 100 nM
# Experimental: as §1, §2, §3, §4, §5
# [6] = test system: phospho-MEK in MM127 cells; assay: pMEK/tMEK ratio in MM127 melanoma model; type: cell-based; details: MM127 (NRAS p.G13R, BRAF p.G464E); 100 nM
# Experimental: as §1, §2, §3, §4, §5
# [7] = test system: phospho-ERK in MM127 cells; assay: pERK/tERK ratio in MM127 melanoma model; type: cell-based; details: MM127 (NRAS p.G13R, BRAF p.G464E); 100 nM
# Experimental: as §1, §2, §3, §4, §5
# [8] = test system: phospho-ERK in Hs852.T cells; assay: pERK/tERK ratio in Hs852.T melanoma model; type: cell-based; details: Hs852.T (NRAS p.G12V); 100 nM
# Experimental: as §1, §2, §3, §4, §5
# [9] = test system: phospho-ERK in SK-MEL-30 cells; assay: pERK/tERK ratio in SK-MEL-30 melanoma model; type: cell-based; details: SK-MEL-30 (NRAS p.Q61K); 100 nM
# Experimental: as §1, §2, §3, §4, §5
# [10] = test system: phospho-ERK in SK-MEL-28 cells; assay: pERK/tERK ratio in SK-MEL-28 melanoma model; type: cell-based; details: SK-MEL-28 (BRAF p.V600E); 100 nM
# Experimental: as §1, §2, §3, §4, §5
# [11] = test system: phospho-MEK in MeWo cells; assay: pMEK/tMEK ratio in MeWo melanoma model; type: cell-based; details: MeWo (NF1 LoF); 100 nM
# Experimental: as §1, §2, §3, §4, §5
# [12] = test system: phospho-MEK in MM415 cells; assay: pMEK/tMEK ratio in MM415 melanoma model; type: cell-based; details: MM415 (NRAS p.Q61L); 100 nM
# Experimental: as §1, §2, §3, §4, §5
# [13] = test system: phospho-MEK in Hs852.T cells; assay: pMEK/tMEK ratio in Hs852.T melanoma model; type: cell-based; details: Hs852.T (NRAS p.G12V); 100 nM
# Experimental: as §1, §2, §3, §4, §5
# [14] = test system: phospho-MEK in SK-MEL-2 cells; assay: pMEK/tMEK ratio in SK-MEL-2 melanoma model; type: cell-based; details: SK-MEL-2 (NRAS p.Q61R); 100 nM
# Experimental: as §1, §2, §3, §4, §5
# [15] = test system: phospho-ERK in MEL-JUSO cells; assay: pERK/tERK ratio in MEL-JUSO melanoma model; type: cell-based; details: MEL-JUSO (HRAS p.G13D, NRAS p.Q61L); 100 nM
# Experimental: as §1, §2, §3, §4, §5
# [16] = test system: phospho-ERK in A375 cells; assay: Cell-based pERK (pERK:tERK) in A375 cells; details: A375 (BRAF p.V600E); 100 nM
# Experimental: Materials and Methods: A549 or A375 cells were seeded in 6-well plates at an appropriate seeding density on day 0. On day 2 or 3, after checking the health and confluency of cells, the media was aspirated and replaced with 1 mL media containing a predetermined concentration of compound and incubated for 2 hours. After 2 hours, the media was aspirated, and the cells washed 2 times with cold PBS. Cells were lysed on ice, with 50 uL 1×CST lysis buffer +1 mM PMSF for 5 minutes. After 5 minutes, cells were removed using a scraper and transferred to cold 1.5 mL tubes, and centrifuged for 10 min, 4° C., 14,000×g. Supernatant was gently removed and snap frozen in liquid nitrogen. Protein concentration of the lysate was determined using Bradford Reagent (analyzed using SpectraMax M2E) and diluted to 1 mg/mL or pERK or 1.5 mg/mL for pMEK analysis. […] All dilutions were in Milk-free antibody diluent.
# A549 or […] cells were treated in duplicate for two hours with compounds at varying concentrations. After two hours, the cells were lysed, snap frozen, and stored at −80° C. After storage, the lysate was quantified with the Bradford assay. Before the lysates were prepared to run on the Jess, the lysates were diluted to 1 mg/mL for pERK analysis and 1.5 mg/mL pMEK analysis using quantitative Western blotting. ERK and MEK phosphorylation levels were estimated by taking the ratio of phospho-protein to total protein and normalizing to the DMSO control.
# as §5
# [17] = test system: phospho-MEK in A375 cells; assay: pMEK/tMEK ratio in A375 melanoma model; type: cell-based; details: A375 (BRAF p.V600E); 100 nM
# Experimental: as §1, §2, §3, §4, §5
# [18] = test system: phospho-MEK in SK-MEL-28 cells; assay: pMEK/tMEK ratio in SK-MEL-28 melanoma model; type: cell-based; details: SK-MEL-28 (BRAF p.V600E); 100 nM
# Experimental: as §1, §2, §3, §4, §5
# [19] = test system: phospho-ERK in SK-MEL-2 cells; assay: pERK/tERK ratio in SK-MEL-2 melanoma model; type: cell-based; details: SK-MEL-2 (NRAS p.Q61R); 100 nM
# Experimental: as §1, §2, §3, §4, §5
smiles,measurement,setting,value
Cn1cnc2c(F)c(Nc3ccc(Br)cc3F)c(C(=O)NOCCO)cc21 [Binimetinib],pERK/tERK ratio normalized to DMSO,[1],0.161
same,human plasma drug half-life,[2],3.5 h
same,pMEK/tMEK ratio normalized to DMSO,[3],3.291
same,pERK/tERK ratio normalized to DMSO,[4],0.056
same,pMEK/tMEK ratio normalized to DMSO,[5],2.649
same,pMEK/tMEK ratio normalized to DMSO,[6],3.009
same,pERK/tERK ratio normalized to DMSO,[7],0.199
same,pERK/tERK ratio normalized to DMSO,[8],0.203
same,pERK/tERK ratio normalized to DMSO,[9],0.082
same,pERK/tERK ratio normalized to DMSO,[10],0.079
same,pMEK/tMEK ratio normalized to DMSO,[11],7.42
same,pMEK/tMEK ratio normalized to DMSO,[12],3.055
same,pMEK/tMEK ratio normalized to DMSO,[13],6.489
same,pMEK/tMEK ratio normalized to DMSO,[14],2.587
same,pERK/tERK ratio normalized to DMSO,[15],0.139
same,pERK/tERK ratio normalized to DMSO,[16],0.136
same,pMEK/tMEK ratio normalized to DMSO,[17],1.062
same,pMEK/tMEK ratio normalized to DMSO,[18],1.055
same,pERK/tERK ratio normalized to DMSO,[19],0.125

# From US20250179057A1, “MEK IMMUNE ONCOLOGY INHIBITORS AND THERAPEUTIC USES THEREOF” (Immuneering Corporation, priority 2022, published 2025)
